# Patent US5368841A, “Photodynamic therapy for the destruction of the synovium in the treatment of rheumatoid arthritis and the inflammatory arthritides” (The General Hospital Corporation, priority 1993, dated 1994)
# Tests used:
# [1] = rabbit, in vivo
# [2] = test system: EJ (human bladder carcinoma); experiment: Intracellular PpIX synthesis versus cell proliferation rate (Table 4); assay type: cell-based; details: Dt 23 h
# [3] = test system: HSF (human skin fibroblast); experiment: as above; assay type: cell-based; details: Dt 27 h
# [4] = test system: NBT-2 (rat bladder carcinoma); experiment: as above; assay type: cell-based; details: Dt 13.5 h
# [5] = test system: 5PAM (murine squamous cell carcinoma); experiment: as above; assay type: cell-based; details: Dt 14 h
# [6] = rabbit, in vivo; remark: listed apart in the source
# Method: Photochemotherapeutic synovectomy was performed on an antigen induced arthritis (AIA) model in 12 New Zealand white rabbits in a double control study. After a six week sensitization period, the joints of all animals were challenged bilaterally with an injection of albumin suspended in Freund's adjuvant. After five days, eight animals received systemic injections of 2 mg/kg of Photophrin® II. At 24 hours, four animals underwent bilateral arthrotomy procedures. The right knee joint of each was exposed to 100J/cm2 of 630 nm laser light over a 20 minute period. The left knees, not receiving the laser light application, served as controls. At 48 hours post HPD injection, an additional 4 animals underwent the identical operative procedures. Post-operatively, all animals were returned to their cages and allowed free movement. […] At one month post treatment, animals were sacrificed, knee joint synovium was then harvested, fixed, and stained with H and E for pathological evaluation.
# [7] = design: species or system New Zealand White rabbits; details: rabbit, in vivo
# Method: (§1) Thirty New Zealand White rabbits weighing 2-4 kg were sensitized over a six week period with two cutaneous injections of ovalbumin suspended in Fruends adjuvant. At six weeks, the knee joints of all animals were challenged with an intra-articular injection of ovalbumin solution. Seven days following joint challenge, 25 animals received systemic intravenous injections with Photofrin® (2.0 mg/kg). Animals were killed at 6, 12, 24, 48 and 72 hours post Photofrin® injection and tissue samples were obtained of skin, quadriceps muscle, knee synovium, articular cartilage, meniscus, bone and tendon. Tissue weight was measured (Mettler AE 163 balance) and tissue samples were frozen at -90 degrees C. (Revco Ultra Low Freezer) until dye extraction.
# For extraction, tissue samples were homogenized (Homogenizer, Model PT 10/35, Brinkman Instruments, Co., Westbury, N.Y.) in 8 cc 0.1N NaOh solution. Each sample was centrifuged at 17,000 RPM (Sorvall RC-5B, refrigerated superspeed centrifuge, DuPont instruments) for 20 minutes. The fluorescence of 2 cc of supernatant was measured with a spectrofluorometer (Model Flourolog 2, Spex Industries, Inc., Edison, N.J.) and compared to that of standard solutions of Photofrin® with known concentration, and Photofrin® mixed with supernatant of extracted control quadriceps muscle. The excitation wavelength 366 nm and fluorescence spectrum between 600 and 700 nm was analyzed. Untreated animals will served as controls and for background correction.
# [8] = design: species or system New Zealand White rabbits; details: rabbit, in vivo; remark: listed apart in the source
# Method: as §1
# The biodistribution of Photophrin® within synovium, articular cartilage and meniscus was also studied with fluorescence microscopy. At each of the harvest intervals of 6, 12, 24, 48 and 72 hours post injection, tissue specimens were obtained from experimental and control animals. Samples were placed in O.C.T. medium and frozen at -90 C. Unstained frozen sections at 10 microns were prepared using a cryostat (Microm, Inc., Heidelberg, Germany) and analyzed with a fluorescence microscope (Axiophot, Zeiss, Oberkochen, Germany) under epiluminescence of a mercury lamp (HBO 200 W/2, Zeiss). […]
compound,measurement,setting,value
"NCC(=O)CCC(=O)O [ALA, δ-aminolevulinic acid]",ALA observed in the synovium,[1],large amounts
"C=CC1=C(C)c2cc3[nH]c(cc4nc(cc5[nH]c(cc1n2)c(C)c5CCC(=O)O)C(CCC(=O)O)=C4C)c(C)c3C=C [PpIX, Protoporphyrin IX]",Intracellular PpIX (4 h),[2],100 a moles/cell
same,Intracellular PpIX (4 h),[3],40 a moles/cell
same,Intracellular PpIX (4 h),[4],160 a moles/cell
same,Intracellular PpIX (4 h),[5],160 a moles/cell
Photofrin®,side effects of synovium destruction,[6],without significant side effects
same,selectivity of uptake in inflamed synovium,[7],selectively taken up in synovium at 24 and 48 hours post systemic injection
same,"uptake in articular cartilage, meniscus, muscle and tendon",[7],insignificant
same,Photofrin® concentration in tissue (inflamed synovium),"[7]; iv, 2 mg/kg",greater than 4 micrograms/gram of tissue
same,time of maximum uptake in inflamed synovium,"[7]; iv, 2 mg/kg",48 h
same,uptake by fluorescence microscopy in synovium,[8],"significant uptake at 12, 24, 48 and 72 hours"
